According to article PMC5862592, “CDK8/19 inhibition induces premature G1/S transition and ATR-dependent cell death in prostate cancer cells” (Oncotarget, 2018):
Where two headings read alike, the source gives them in different places.

Legend:
Experiment in all cases: biochemical
Parameters in all cases: KINOMEscan active site-directed competition binding assay (DiscoveRx), 456 kinases, per cent of control at 300 nM
Settings in all cases: read-out: Percent of Control (%)
ACVRL1 = ACVRL1 (Homo sapiens, UniProt P37023)
In short: (§1)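 Kinase panel (456 enzymes) profiled by competitive displacement at the active site; compounds run at 300 nmol/L.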

ARK5 = target: T1, ARK5 (Homo sapiens, UniProt O60285)
T1 construct: gene NUAK1
In short: as §1

BLK = BLK (Homo sapiens, UniProt P51451)
In short: as §1

CLK4 = CLK4 (Homo sapiens, UniProt Q9HAZ1)
In short: as §1

EGFR(S752-I759del) = EGFR(S752-I759del) (Homo sapiens, UniProt P00533, DEL752-759)
In short: as §1

FAK = target: T2, FAK (Homo sapiens, UniProt Q05397)
T2 construct: gene PTK2
In short: as §1

FLT3(D835H) = FLT3(D835H) (Homo sapiens, UniProt P36888, D835H)
In short: as §1

GSK3B = GSK3B (Homo sapiens, UniProt P49841)
In short: as §1

HIPK1 = HIPK1 (Homo sapiens, UniProt Q86Z02)
In short: as §1

PFTAIRE2 = target: T3, PFTAIRE2 (Homo sapiens, UniProt Q96Q40)
T3 construct: gene CDK15
In short: as §1

PIK3C2B = PIK3C2B (Homo sapiens, UniProt O00750)
In short: as §1

PIK3CA(E545A) = PIK3CA(E545A) (Homo sapiens, UniProt P42336, E545A)
In short: as §1

PIK3CB = PIK3CB (Homo sapiens, UniProt P42338)
In short: as §1

PIK4CB = target: T4, PIK4CB (Homo sapiens, UniProt Q9UBF8)
T4 construct: gene PI4KB
In short: as §1

PIP5K2C = target: T5, PIP5K2C (Homo sapiens, UniProt Q8TBX8)
T5 construct: gene PIP4K2C
In short: as §1

STK33 = STK33 (Homo sapiens, UniProt Q9BYT3)
In short: as §1

TNNI3K = TNNI3K (Homo sapiens, UniProt Q59H18)
In short: as §1

TXK = TXK (Homo sapiens, UniProt P42681)
In short: as §1

TYRO3 = TYRO3 (Homo sapiens, UniProt Q06418)
In short: as §1

ULK3 = ULK3 (Homo sapiens, UniProt Q6PHR2)
In short: as §1

YANK1 = target: T6, YANK1 (Homo sapiens, UniProt Q8WU08)
T6 construct: gene STK32A
In short: as §1

ZAP70 = ZAP70 (Homo sapiens, UniProt P43403)
In short: as §1

T2 sequence (Q05397 whole entry): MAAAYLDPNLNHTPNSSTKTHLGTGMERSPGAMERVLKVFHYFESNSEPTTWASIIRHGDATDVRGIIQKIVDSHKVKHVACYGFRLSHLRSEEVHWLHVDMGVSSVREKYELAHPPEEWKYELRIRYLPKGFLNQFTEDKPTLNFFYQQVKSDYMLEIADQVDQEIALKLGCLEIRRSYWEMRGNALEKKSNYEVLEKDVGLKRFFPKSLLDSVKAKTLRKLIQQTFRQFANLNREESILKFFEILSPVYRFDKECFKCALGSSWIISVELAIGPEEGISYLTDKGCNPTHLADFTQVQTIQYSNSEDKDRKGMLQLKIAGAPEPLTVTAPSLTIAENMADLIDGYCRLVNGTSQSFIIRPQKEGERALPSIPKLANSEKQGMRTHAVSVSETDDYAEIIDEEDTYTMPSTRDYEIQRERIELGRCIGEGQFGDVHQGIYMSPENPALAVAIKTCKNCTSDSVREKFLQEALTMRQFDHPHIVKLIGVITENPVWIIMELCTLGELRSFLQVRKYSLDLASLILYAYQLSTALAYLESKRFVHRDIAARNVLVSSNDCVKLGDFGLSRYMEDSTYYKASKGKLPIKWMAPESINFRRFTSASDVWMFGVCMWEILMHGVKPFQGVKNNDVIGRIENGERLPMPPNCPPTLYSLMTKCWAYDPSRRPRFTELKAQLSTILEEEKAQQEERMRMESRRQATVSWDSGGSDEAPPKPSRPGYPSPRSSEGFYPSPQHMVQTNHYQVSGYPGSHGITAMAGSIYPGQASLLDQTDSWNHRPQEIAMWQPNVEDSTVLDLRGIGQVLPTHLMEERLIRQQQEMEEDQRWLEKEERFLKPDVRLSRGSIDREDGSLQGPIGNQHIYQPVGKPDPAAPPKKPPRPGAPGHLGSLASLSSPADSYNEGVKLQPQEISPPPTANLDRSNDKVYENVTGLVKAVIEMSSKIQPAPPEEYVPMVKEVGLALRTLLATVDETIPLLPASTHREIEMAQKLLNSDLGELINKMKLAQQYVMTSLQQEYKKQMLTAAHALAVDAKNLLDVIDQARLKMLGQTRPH
T3 sequence (Q96Q40 whole entry): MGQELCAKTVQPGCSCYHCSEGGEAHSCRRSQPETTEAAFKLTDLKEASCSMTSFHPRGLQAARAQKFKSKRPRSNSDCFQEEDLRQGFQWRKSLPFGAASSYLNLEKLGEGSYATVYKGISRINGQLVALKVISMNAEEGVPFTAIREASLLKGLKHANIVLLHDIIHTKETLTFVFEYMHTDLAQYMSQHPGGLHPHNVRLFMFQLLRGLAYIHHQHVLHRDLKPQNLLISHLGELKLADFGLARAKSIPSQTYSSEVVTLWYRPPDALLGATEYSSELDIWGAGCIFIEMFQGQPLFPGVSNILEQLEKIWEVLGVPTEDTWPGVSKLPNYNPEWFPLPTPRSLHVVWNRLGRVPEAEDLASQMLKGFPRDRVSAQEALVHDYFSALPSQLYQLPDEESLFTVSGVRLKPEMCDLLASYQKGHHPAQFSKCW
ULK3, sequence (Q6PHR2 whole entry): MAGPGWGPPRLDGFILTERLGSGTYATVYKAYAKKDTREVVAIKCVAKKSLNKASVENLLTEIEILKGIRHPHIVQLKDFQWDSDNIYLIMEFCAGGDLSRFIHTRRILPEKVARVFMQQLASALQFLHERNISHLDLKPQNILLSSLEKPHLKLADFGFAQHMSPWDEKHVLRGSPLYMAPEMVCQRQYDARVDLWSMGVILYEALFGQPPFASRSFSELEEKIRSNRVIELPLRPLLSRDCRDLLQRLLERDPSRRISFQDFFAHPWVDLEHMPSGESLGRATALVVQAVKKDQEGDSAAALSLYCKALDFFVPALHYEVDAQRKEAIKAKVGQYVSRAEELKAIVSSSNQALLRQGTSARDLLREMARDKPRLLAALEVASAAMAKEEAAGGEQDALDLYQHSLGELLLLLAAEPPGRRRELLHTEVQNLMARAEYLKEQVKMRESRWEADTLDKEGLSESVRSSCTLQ
EGFR(S752-I759del), sequence (P00533 with tags, fused parts or gaps DEL752-759): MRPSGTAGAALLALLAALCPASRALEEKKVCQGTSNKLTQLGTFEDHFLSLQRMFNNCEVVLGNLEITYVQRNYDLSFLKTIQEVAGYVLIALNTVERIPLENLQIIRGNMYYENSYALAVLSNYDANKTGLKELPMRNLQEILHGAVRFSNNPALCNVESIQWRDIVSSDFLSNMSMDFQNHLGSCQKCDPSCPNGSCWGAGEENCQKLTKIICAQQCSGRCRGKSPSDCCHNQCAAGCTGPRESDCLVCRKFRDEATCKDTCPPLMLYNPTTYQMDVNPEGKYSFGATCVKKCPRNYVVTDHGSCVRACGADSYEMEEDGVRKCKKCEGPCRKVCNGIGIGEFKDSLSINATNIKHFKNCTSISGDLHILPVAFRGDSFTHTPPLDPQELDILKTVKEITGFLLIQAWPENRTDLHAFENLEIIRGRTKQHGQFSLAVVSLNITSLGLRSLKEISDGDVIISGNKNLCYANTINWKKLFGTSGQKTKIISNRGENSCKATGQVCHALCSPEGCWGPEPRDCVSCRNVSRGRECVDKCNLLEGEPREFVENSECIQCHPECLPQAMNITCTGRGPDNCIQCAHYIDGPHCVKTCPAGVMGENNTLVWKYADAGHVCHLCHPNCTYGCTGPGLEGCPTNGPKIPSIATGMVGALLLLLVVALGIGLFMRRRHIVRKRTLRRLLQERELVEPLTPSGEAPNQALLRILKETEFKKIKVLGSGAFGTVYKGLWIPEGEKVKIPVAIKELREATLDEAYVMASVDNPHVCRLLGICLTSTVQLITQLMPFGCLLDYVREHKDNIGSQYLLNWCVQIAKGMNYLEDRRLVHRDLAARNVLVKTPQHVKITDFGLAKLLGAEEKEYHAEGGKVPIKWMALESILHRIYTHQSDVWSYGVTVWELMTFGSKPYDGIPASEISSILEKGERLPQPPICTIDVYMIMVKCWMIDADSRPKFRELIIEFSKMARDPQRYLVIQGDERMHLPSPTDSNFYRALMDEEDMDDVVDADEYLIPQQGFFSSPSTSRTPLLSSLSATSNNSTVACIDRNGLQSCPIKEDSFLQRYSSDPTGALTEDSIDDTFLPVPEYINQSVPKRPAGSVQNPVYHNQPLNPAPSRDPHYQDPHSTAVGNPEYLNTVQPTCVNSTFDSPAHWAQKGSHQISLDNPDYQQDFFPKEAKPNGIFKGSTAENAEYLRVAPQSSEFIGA
T1 sequence (O60285 whole entry): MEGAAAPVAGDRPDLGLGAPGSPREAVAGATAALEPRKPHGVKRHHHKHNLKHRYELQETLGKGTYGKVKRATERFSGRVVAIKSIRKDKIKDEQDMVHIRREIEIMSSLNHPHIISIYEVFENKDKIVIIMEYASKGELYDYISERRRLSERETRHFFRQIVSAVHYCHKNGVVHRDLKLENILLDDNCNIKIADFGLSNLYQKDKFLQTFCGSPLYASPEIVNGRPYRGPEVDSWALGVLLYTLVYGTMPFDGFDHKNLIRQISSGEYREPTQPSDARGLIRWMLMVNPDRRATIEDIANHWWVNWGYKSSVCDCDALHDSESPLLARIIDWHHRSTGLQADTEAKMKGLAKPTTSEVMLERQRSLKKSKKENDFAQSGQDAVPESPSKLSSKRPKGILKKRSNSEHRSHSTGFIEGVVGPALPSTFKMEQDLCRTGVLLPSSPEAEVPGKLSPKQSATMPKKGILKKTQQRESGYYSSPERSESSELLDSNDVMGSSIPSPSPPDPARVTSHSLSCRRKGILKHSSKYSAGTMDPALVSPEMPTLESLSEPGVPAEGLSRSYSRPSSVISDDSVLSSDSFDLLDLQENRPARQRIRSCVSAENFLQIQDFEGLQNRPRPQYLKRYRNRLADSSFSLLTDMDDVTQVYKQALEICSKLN
TYRO3, sequence (Q06418 whole entry): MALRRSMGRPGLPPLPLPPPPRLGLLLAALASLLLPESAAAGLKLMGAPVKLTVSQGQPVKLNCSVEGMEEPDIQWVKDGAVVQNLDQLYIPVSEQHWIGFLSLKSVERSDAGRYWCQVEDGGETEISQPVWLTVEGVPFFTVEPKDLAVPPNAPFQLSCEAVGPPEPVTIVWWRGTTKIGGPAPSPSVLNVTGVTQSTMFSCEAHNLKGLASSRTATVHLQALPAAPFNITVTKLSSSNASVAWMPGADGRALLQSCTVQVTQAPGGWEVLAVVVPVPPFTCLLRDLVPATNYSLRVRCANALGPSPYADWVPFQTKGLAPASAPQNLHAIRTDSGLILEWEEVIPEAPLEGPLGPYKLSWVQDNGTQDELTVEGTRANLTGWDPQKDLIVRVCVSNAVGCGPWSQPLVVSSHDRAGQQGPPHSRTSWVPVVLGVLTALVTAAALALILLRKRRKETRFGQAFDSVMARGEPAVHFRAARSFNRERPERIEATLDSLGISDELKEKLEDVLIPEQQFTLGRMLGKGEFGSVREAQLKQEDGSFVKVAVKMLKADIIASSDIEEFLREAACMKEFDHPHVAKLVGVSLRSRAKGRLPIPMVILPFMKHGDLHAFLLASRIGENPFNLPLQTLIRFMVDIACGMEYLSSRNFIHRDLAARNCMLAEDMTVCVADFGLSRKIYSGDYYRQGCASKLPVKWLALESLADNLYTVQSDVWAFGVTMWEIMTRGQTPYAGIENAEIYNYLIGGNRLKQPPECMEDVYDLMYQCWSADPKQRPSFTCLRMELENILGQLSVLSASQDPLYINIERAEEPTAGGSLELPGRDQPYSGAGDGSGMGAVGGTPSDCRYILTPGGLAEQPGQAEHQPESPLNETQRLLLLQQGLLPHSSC

O=C(/C=C/c1cnccc1-c1ccc(F)cc1)Nc1ccc(CCc2nnco2)cc1 [T-418, (2E)-3-(4-(4-fluorophenyl)pyridin-3-yl)-N-(4-(2-(1,3,4-oxadiazol-2-yl)ethyl)phenyl)acrylamide]
remaining binding at 0.3 µM (ACVRL1; sheet T-418): 77%
remaining binding at 0.3 µM (ARK5; sheet T-418): 100%
remaining binding at 0.3 µM (BLK; sheet T-418): 100%
remaining binding at 0.3 µM (CLK4; sheet T-418): 100%
remaining binding at 0.3 µM (EGFR(S752-I759del); sheet T-418): 98%
remaining binding at 0.3 µM (FAK; sheet T-418): 80%
remaining binding at 0.3 µM (FLT3(D835H); sheet T-418): 100%
remaining binding at 0.3 µM (GSK3B; sheet T-418): 98%
remaining binding at 0.3 µM (HIPK1; sheet T-418): 75%
remaining binding at 0.3 µM (PFTAIRE2; sheet T-418): 92%
remaining binding at 0.3 µM (PIK3C2B; sheet T-418): 88%
remaining binding at 0.3 µM (PIK3CA(E545A); sheet T-418): 78%
remaining binding at 0.3 µM (PIK3CB; sheet T-418): 96%
remaining binding at 0.3 µM (PIK4CB; sheet T-418): 100%
remaining binding at 0.3 µM (PIP5K2C; sheet T-418): 74%
remaining binding at 0.3 µM (STK33; sheet T-418): 91%
remaining binding at 0.3 µM (TNNI3K; sheet T-418): 100%
remaining binding at 0.3 µM (TXK; sheet T-418): 72%
remaining binding at 0.3 µM (TYRO3; sheet T-418): 82%
remaining binding at 0.3 µM (ULK3; sheet T-418): 20%
remaining binding at 0.3 µM (YANK1; sheet T-418): 100%
remaining binding at 0.3 µM (ZAP70; sheet T-418): 86%

Cc1ncccc1Oc1sc(C(N)=O)c2c1-c1c(cnn1C)CC2 [T-474, 1-methyl-8-((2-methylpyridin-3-yl)oxy)-4,5-dihydro-1H-thieno[3,4-g]indazole-6-carboxamide]
remaining binding at 0.3 µM (ACVRL1): 87%
remaining binding at 0.3 µM (ARK5): 100%
remaining binding at 0.3 µM (BLK): 100%
remaining binding at 0.3 µM (CLK4): 50%
remaining binding at 0.3 µM (EGFR(S752-I759del)): 100%
remaining binding at 0.3 µM (FAK): 88%
remaining binding at 0.3 µM (FLT3(D835H)): 58%
remaining binding at 0.3 µM (GSK3B): 94%
remaining binding at 0.3 µM (HIPK1): 81%
remaining binding at 0.3 µM (PFTAIRE2): 100%
remaining binding at 0.3 µM (PIK3C2B): 86%
remaining binding at 0.3 µM (PIK3CA(E545A)): 69%
remaining binding at 0.3 µM (PIK3CB): 100%
remaining binding at 0.3 µM (PIK4CB): 100%
remaining binding at 0.3 µM (PIP5K2C): 74%
remaining binding at 0.3 µM (STK33): 86%
remaining binding at 0.3 µM (TNNI3K): 95%
remaining binding at 0.3 µM (TXK): 66%
remaining binding at 0.3 µM (TYRO3): 95%
remaining binding at 0.3 µM (ULK3): 20%
remaining binding at 0.3 µM (YANK1): 100%
remaining binding at 0.3 µM (ZAP70): 100%
